Measured values as given in patent US7071168B2, “Anti-cancer compounds and methods related thereto” (The Regents of the University of Colorado, priority 1998, dated 2006).

Legend:
SCLC strain SHP-77 = test: Colorimetric tetrazolium (MTT) assay for cell survival, SCLC strain SHP-77; format: cell-based, human
Summary of the method: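 MTT assay: cells seeded overnight, treated in triplicate across a concentration range for 4 days at 37 °C, 5% CO2. On day 5, MTT was added for 4 h; formazan was dissolved in acidified isopropanol and absorbance read.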

[1] = test system: bradykinin response of isolated guinea pig ileum; test: Anti-bradykinin activity on isolated guinea pig ileum
Summary of the method: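 Bradykinin concentration-effect curves were run in the absence and presence of compound. Tissue: 25 mm terminal ileum from male Hartley guinea pigs fasted overnight, held at 1 g tension in O2/CO2-bubbled Krebs' solution after 1 h equilibration.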

[2] = isolated guinea pig ileum, pD2 of bradykinin is 7.4, higher numbers indicate higher potency
[3] = Table 1, higher numbers indicate higher potency

Compound | MTT: ED50 for killing of SCLC strain SHP-77 in vitro (SCLC strain SHP-77; SCLC strain SHP-77 in vitro) | GPI: pA2 for bradykinin antagonist activity on isolated guinea pig ileum [1, 2] | MTT: ED50 for killing of SCLC strain SHP-77 in vitro (SCLC strain SHP-77; Table 1, SHP-77, MTT, 4 days) | GPI: pA2 for bradykinin antagonist activity on isolated guinea pig ileum [1, 3] | further results
CC1(C)CC(NC(=O)C(Cc2ccc3ccccc3c2)NC(=O)COc2c(F)c(F)c(F)c(F)c2F)CC(C)(C)N1 (stereo not drawn) [M568] | 10 µM | 5.8 | – | – | –
F5c-Gly-mABz-2Nal-Arg [M196] | – | – | Inact | 5.1 | –
CN(C)c1ccc(CNC(=O)C(Cc2ccc(F)cc2)NC(=O)C=Cc2c(F)c(F)c(F)c(F)c2F)cc1 (stereo not drawn) [M832] | 47 µM | 4.6 | – | – | –
DTP-(DArg-Arg-Eac-Ser-DF5F-Nc7G-Arg)2 [M1026] | – | – | 70 µM | 6.9 | –
CN(C(=O)C(Cc1ccc(OCc2c(Cl)cccc2Cl)cc1)NC(=O)CCc1ccccc1)C1CC(C)(C)N(C)C(C)(C)C1 (stereo not drawn) [M652] | 7.5 µM | 5.7 | – | – | –
F5c-MBC-Arg [M528] | – | – | Inact | Inact | –
F5c-DArg-Arg-Eac-Ser-DF5F-Oic-Arg [M796] | – | – | 31 µM | 6.5 | –
c[DArg-Arg-Pro-Hyp-Gly-Igl-Ser-DIgl-Oic-Arg] [B10302] | – | – | – | – | MTT: ED50 for killing of SCLC strain SHP-77 in vitro (SCLC strain SHP-77; Table 3, cyclic peptides): Inact; GPI: pA2 for bradykinin antagonist activity on isolated guinea pig ileum ([1]; Table 3, cyclic peptides): 5.2
CC1(C)CC(NC(=O)[C@H](Cc2ccc3ccccc3c2)NC(=N)CCCCCCCCCCCCC(=N)N[C@@H](Cc2ccc3ccccc3c2)C(=O)NC2CC(C)(C)NC(C)(C)C2)CC(C)(C)N1 [M254-2] | 5 µM | 5.8 | – | – | –
CN(C(=O)[C@H](Cc1ccc(OCc2c(Cl)cccc2Cl)cc1)NC(=O)c1nc(Cl)c(Cl)c(N)c1Cl)C1CC(C)(C)NC(C)(C)C1 [M632] | 1.4 µM | 5.4 | – | – | –
F5c-DArg-Eac-hPhe-Arg [M738] | – | – | Inact | 5.3 | –
CC1(C)CC(NC(=O)[C@H](Cc2ccc3ccccc3c2)NC(=O)C(c2ccccc2)c2ccccc2)CC(C)(C)N1 [M272] | 9 µM | 5.2 | – | – | –
DDD-(DArg-Arg-Eac-Ser-DTic-Oic-Arg)2 [M794] | – | – | 21 µM | Inact | –
Moti-DArg-Arg-Pro-Hyp-Gly-Igl-Ser-DIgl-Oic-Arg [B10100-1] | – | – | 4 µM | 7.8 | –
DDD-(DArg-Arg-Add-Ser-DIgl-PFF-Arg)2 [M864] | – | – | 1.8 µM | Inact | –
DDD-(Eac-Eac-Arg-DIgl-Oic-Arg)2 [B10200] | – | – | 16 µM | 5.8 | –
F5c-F5F-Arg [M810] | – | – | 40 µM | 4.6 | –
CC1CN(C(=O)[C@H](Cc2ccc3ccccc3c2)NC(=N)CCCCCCCCCCCCC(=N)N[C@@H](Cc2ccc3ccccc3c2)C(=O)N2CC(C)OC(C)C2)CC(C)O1 (stereo partly drawn) [M304] | 4.2 µM | 5.9 | – | – | –
CC1=C(CC(=O)NC(Cc2ccc3ccccc3c2)C(=O)NC2CC(C)(C)NC(C)(C)C2)c2cc(F)ccc2C1=Cc1ccc([S+](C)[O-])cc1 (stereo not drawn) [M656] | 13 µM | 5.4 | – | – | –
F5c-DArg-Arg-Aud-Ser-D5F5-Oic-Arg [M888] | – | – | 12.5 µM | 6.6 | –
DDD-( DArg-Arg-Add-Ser-DIgl-Oic-Arg)2 [M862] | – | – | 1.3 µM | 5.6 | –
Dpa-PFF-Arg [M816] | – | – | 52 µM | 4.6 | –
CC1(C)CC(NC(=O)[C@H](Cc2ccc3ccccc3c2)NC(=NC2CCCCC2)NC2CCCCC2)(C(=O)O)CC(C)(C)N1 [M244B] | Inact | 4.9 | – | – | –

Compound | MTT: ED50 for killing of SCLC strain SHP-77 in vitro (SCLC strain SHP-77; SCLC strain SHP-77 in vitro) | GPI: pA2 for bradykinin antagonist activity on isolated guinea pig ileum [1, 2] | MTT: ED50 for killing of SCLC strain SHP-77 in vitro (SCLC strain SHP-77; Table 1, SHP-77, MTT, 4 days) | GPI: pA2 for bradykinin antagonist activity on isolated guinea pig ileum [1, 3] | further results
DDD-(DArg-Arg-Aud-DIgl-PFF-Arg)2 [M842] | – | – | 1.4 µM | Inact | –
Aaa-DPhe-hPhe-Arg [M754] | – | – | Inact | 4.6 | –
DArg-Arg-Pro-Hyp-Gly-Igl-Ser-DIgl-Oic-Arg-Eac-Eac-DArg-Arg-Pro-Hyp-Gly-Igl-Ser-DIgl-Oic-Arg [B10088] | – | – | 4 µM | 7.1 | –
DDD-(DArg-2Nal-Arg)2 [M508] | – | – | 23 µM | Inact | –
c[Bala-DArg-Arg-Eac-Ser-DF5F-Oic-Arg] [M910] | – | – | – | – | MTT: ED50 for killing of SCLC strain SHP-77 in vitro (SCLC strain SHP-77; Table 3, cyclic peptides): 42 µM; GPI: pA2 for bradykinin antagonist activity on isolated guinea pig ileum ([1]; Table 3, cyclic peptides): 5.2
CN1CCN(NC(=O)[C@H](Cc2ccc3ccccc3c2)NC(=O)C=Cc2ccc(NC(=O)CCCCCCCCCCC(=O)O)cc2)CC1 [M480-1] | 45 µM | 5.1 | – | – | –
c[DArg-Arg-Eac-Ser-DF5F-Oic-Arg] [M872] | – | – | – | – | MTT: ED50 for killing of SCLC strain SHP-77 in vitro (SCLC strain SHP-77; Table 3, cyclic peptides): 2.2 µM; GPI: pA2 for bradykinin antagonist activity on isolated guinea pig ileum ([1]; Table 3, cyclic peptides): Inact
DDD-(DArg-Arg-Aud-Ser-DF5F-Oic-Arg)2 [M890] | – | – | 1.7 µM | 5.5 | –
c[DArg-Arg-Aud-DF5F-Oic-Arg] [M868-2] | – | – | – | – | MTT: ED50 for killing of SCLC strain SHP-77 in vitro (SCLC strain SHP-77; Table 3, cyclic peptides): 9.2 µM; GPI: pA2 for bradykinin antagonist activity on isolated guinea pig ileum ([1]; Table 3, cyclic peptides): 6.1
CN(C(=O)C(Cc1ccc(OCc2c(Cl)cccc2Cl)cc1)NC(=O)C=Cc1ccccc1)C1CC(C)(C)NC(C)(C)C1 (stereo not drawn) [M628] | 1.6 µM | 5.2 | – | – | –
COC(=O)CCCCCCCCC(=O)Nc1ccc(C=CC(=O)NC(Cc2csc3ccccc23)C(=O)NC2CC(C)(C)NC(C)(C)C2)cc1 (stereo not drawn) [M506] | 11 µM | 4.9 | – | – | –
CC1(C)CC(NC(=O)[C@H](Cc2ccc3ccccc3c2)NC(=O)C(C2CCCCC2)C2CCCCC2)CC(C)(C)N1 [M276] | 4.6 µM | 5.3 | – | – | –
F5c-DArg-Arg-Aud-DIgl-PFF-Arg [M838] | – | – | 7.4 µM | 5.1 | –
CC1(C)CC(NC(=O)C(Cc2ccc(NS(C)(=O)=O)cc2)NC(=O)C=Cc2c(F)c(F)c(F)c(F)c2F)CC(C)(C)N1 (stereo not drawn) [M648] | Inact | 5.0 | – | – | –
F5c-DArg-Arg-Pro-Hyp-Gly-Igl-Ser-DIgl-Oic-Arg [B10238] | – | – | 150 µM | 8.1 | –
CC1(C)CC(NC(=O)C(Cc2ccc(OCc3ccccc3)cc2)NC(=O)C=Cc2c(F)c(F)c(F)c(F)c2F)CC(C)(C)N1 (stereo not drawn) [M318] | 3.6 µM | 5.1 | – | – | –
CN(C)c1ccc(C=CC(=O)NC(Cc2ccc(OCc3c(Cl)cccc3Cl)cc2)C(=O)N(C)C2CC(C)(C)NC(C)(C)C2)cc1.O=C(O)C(F)(F)F (stereo not drawn) [M630, Dmac-OC2Y-Matp.TFA] | 1.6 µM | 5.0 | – | – | –
Ac-Darg-Arg-Aud-DF5F-Oic-Arg [M868] | – | – | 55 µM | 6.5 | –
F5c-DArg-Arg-Eac-Ser-DTic-Oic-Arg [M792] | – | – | >100 µM | 4.9 | –
DDD-(DArg-PFF-Arg)2 [M820] | – | – | 43 µM | Inact | –
F5c-Lys-Ser-DF5F-Oic-Arg [M802] | – | – | Inact | 6.3 | –
F5c-DArg-Arg-Aud-DTic-Oic-Arg [M788] | – | – | 9 µM | 5 | –
